The test system of the assay is Plasmopara viticola. Put plainly: persistency against peronospora of grapevines caused by Plasmopara viticola, 7-day protective application. Particulars: individual active compound, 7-day protective application on grapevine leaves. It counts as in vivo, Plasmopara viticola on potted vines. On the procedure: The active compounds, separately or jointly, were prepared as a stock solution comprising 0.25% by weight of active compound in acetone or DMSO. 1% by weight of the emulsifier Uniperol® EL (wetting agent having emulsifying and dispersant action based on ethoxylated alkylphenols) was added to this solution, and the mixture was diluted with water to the desired concentration.
Use example—persistency against peronospora of grapevines caused by Plasmopara viticola, 7-day protective application Leaves of potted vines were sprayed to runoff point with an aqueous suspension having the concentration of active compound stated below. 7 days later, the undersides of the leaves were inoculated with an aqueous sporangia suspension of Plasmopara viticola. The grapevines were then initially placed in a water-vapor-saturated chamber at 24° C. for 48 hours and then in a greenhouse at 20-30° C. for 5 days. After this period of time, the plants were again placed in a humid chamber for 16 hours to accelerate sporangiophore eruption. The extent of the development of the disease on the undersides of the leaves was then determined visually.
The visually determined percentages of infected leaf areas were converted into efficacies in % of the untreated control:
The efficacy (E) is calculated as follows using Abbot's formula: E=(1−α/β)·100 α corresponds to the fungicidal infection of the treated plants in % and β corresponds to the fungicidal infection of the untreated (control) plants in % An efficacy of 0 means that the infection level of the treated plants corresponds to that of the untreated control plants; an efficacy of 100 means that the treated plants were not infected.
The expected efficacies of mixtures of active compounds were determined using Colby's formula (Colby, S. R. “Calculating synergistic and antagonistic responses of herbicide combinations”, Weeds, 15, 20-22, 1967) and compared with the observed efficacies.
Colby's formula: E=x+y−x·y/100
E expected efficacy, expressed in % of the untreated control, when using the mixture of the active compounds A and B at the concentrations a and b x efficacy, expressed in % of the untreated control, when using the active compound A at the concentration a y efficacy, expressed in % of the untreated control, when using the active compound B at the concentration b

Structures are written as SMILES.

This note sets out measurements from patent US20070191398A1, “Fungicidal mixtures” (priority 2004, published 2007).

Regarding `CC1CCN(c2c(-c3c(F)cc(F)cc3F)c(Cl)nc3ncnn23)CC1` [I, 5-chloro-7-(4-methylpiperidin-1-yl)-6-(2,4,6-trifluorophenyl)-[1,2,4]tri-azolo[1,5-a]pyrimidine], the “Efficacy in % of the untreated control” value by setting is: (1 ppm in the spray liquor) 0%; (5 ppm in the spray liquor) 0%; (10 ppm in the spray liquor) 6%.

Consider `O=C(NCc1ncc(C(F)(F)F)cc1Cl)c1c(Cl)cccc1Cl` [II, 2,6-dichloro-N-(3-chloro-5-trifluoromethylpyridin-2-ylmethyl)-benzamide], for which the “Efficacy in % of the untreated control” value is 65% (2.5 ppm in the spray liquor) and 76% (5 ppm in the spray liquor).
